Experimental data taken from patent US11555014B2, “High penetration prodrug compositions of prostaglandins and related compounds” (Techfields Pharma Co., Ltd., priority 2006, dated 2023).

Tests used:
[1] = In vitro penetration rate across isolated human skin in modified Franz cells; conditions: for In vitro penetration rate (apparent flux), parent compounds: 10% suspension in pH 7.4 phosphate buffer (0.2 M), n=5, lowest detectable flux 1 μg/cm^2/h; for In vitro penetration rate (apparent flux), prodrug compounds: 10% solution in pH 7.4 phosphate buffer (0.2 M), n=5
Description: The penetration rates of HPPs and their parent drugs through human skin were measured in vitro by modified Franz cells. The Franz cells have two chambers, the top sample chamber and the bottom receiving chamber. The human skin tissue (360-400 μm thick) that separates the top and the receiving chambers was isolated from the anterior or posterior thigh areas.
The compound tested (2 mL, 20% in 0.2 M phosphate buffer, pH. 7.4) were added to the sample chamber of a Franz cell. The receiving chamber contains 10 ml of 2% bovine serum albumin in saline which was stirred at 600 rpm. The cumulative amounts of the tested compounds penetrating the skin versus time were determined by high-performance liquid chromatography (HPLC) method.

rabbit eye = experiment: Conjunctival hyperemia in the rabbit eye after topical application; type: in vivo; conditions: first 2 hours, scale 0 (no hyperemia) to 4 (marked hyperemia with conjunctive chemosis)
Description: Conjunctival hyperemia in the rabbit eye of naturally occurring and modified prostaglandins and their novel prodrugs was evaluated during the first 2 hours after topical application of the respective test drug. The conjunctival hyperemia was graded on a scale from 0 to 4, 0 indicating complete absence of any hyperemia, and 4 indicating marked hyperemia with conjunctive chemosis.

cat eye = experiment: Irritative effect or ocular discomfort in the cat eye after topical application; type: in vivo; conditions: first 2 hours, scale 0 (no discomfort) to 4 (maximal irritation, complete lid closure)
Description: Irritative effect or ocular discomfort in the cat eye of naturally occurring and modified prostaglandins and their novel prodrugs were evaluated during the first hours after the topical application of the respective test drug. The ocular discomfort was graded on a scale from 0 to 4, 0 indicating complete absence of any signs of discomfort, and 4 indicating maximal irritation as obvious from complete lid closure.

[2] = tested on: cats with ocular hypertension; experiment: Intraocular pressure (IOP) reduction in cats with ocular hypertension produced by laser trabeculoplasty; type: in vivo, cat
Description: The ability of certain compounds of the present invention to reduce intraocular pressure (IOP) was evaluated in cats with ocular hypertension produced by previously done laser trabeculoplastry. IOP was determined with a pneumatonometer after light corneal anesthesia with dilute proparacaine. Baseline IOP was determined prior to treatment with the test compound aqueous solution. 6 divided doses were administered over a period of 3 days (once every 12 hours). IOP was determined 24 hours after the initial dose and then once every 12 hours. The therapeutically efficient amount is typically between 0.001 and 0.01% in pH 7.2 phosphate buffer (0.1 M). The treatment was carried out in that one drop (about 30 micro liter) of the composition. The results of N,N-diethylaminoethyl 11,15-dihydroxy-9-oxoprost-13-en-1-oate.AcOH (A), N,N-diethylaminoethyl 11,15-dihydroxyl-9-oxoprosta-5,13-dien-1-oate.AcOH (B), N,N-diethylaminoethyl 9,11,15-trihydroxyprosta-5,13-dien-1-oate.AcOH(C), N,N-diethylaminoethyl 9,11-dihydroxy-15-keto-20-ethylprost-5,13-dien-1-oate.AcOH (9,11-dihydroxy-15-keto-20-ethylprostaglandin F2α N,N-diethylaminoethyl ester) (D), N,N-diethylaminoethyl (Z)-7-{(1R,2R,3R,5S)-3,5-dihydroxy-2-[(1E,3R)-3-hydroxy-4-[(α,α,α-trifluoro-m-tolyl)oxy]-1-butenyl]cyclopentyl}-5-heptenoate.AcOH (E), N,N-diethylaminoethyl (Z)-7{(1R,2R,3R,5S)-3,5-dihydroxy-2-[(3R)-3-hydroxy-5-phenylpentyl]cyclopentyl}-5-heptenoate.AcOH (F), and N,N-diethylaminoethyl (Z)-7-{(1R,2R,3R,5S)-3,5-Dihydroxy-2-[(1E,3S)-3-hydroxy-5-phenyl-1-pentenyl]cyclopentyl}-heptenoate.AcOH (G) are shown in Table 2.

[3] = dose 0.01%, one drop topical every 12 hours, 6 doses

Row | SMILES | In vitro penetration rate (apparent flux), parent compounds [1] | In vitro penetration rate (apparent flux), prodrug compounds [1] | further results
1 | CCCCC(C)(O)C/C=C/[C@H]1[C@H](O)CC(=O)[C@@H]1CCCCCCC(=O)OC (mixture of isomers) [Misoprostol, reference compound] | 0.001 mg/cm^2/h | – | –
2 | O=C(O)CCC/C=C\C[C@@H]1[C@@H](/C=C/[C@@H](O)COc2cccc(C(F)(F)F)c2)[C@H](O)C[C@@H]1O (racemic) [Fluprostenol, reference compound] | 0.001 mg/cm^2/h | – | –
3 | CCNC(=O)CCC/C=C\C[C@@H]1[C@@H](/C=C/[C@@H](O)CCc2ccccc2)[C@H](O)C[C@@H]1O [Bimatoprost, reference compound] | 0.001 mg/cm^2/h | – | Degree of irritative effect (conjunctival hyperemia) (rabbit eye; dose 0.001% topical): 2.5; Degree of irritative effect (cat eye; dose 0.001% topical): 2.5
4 | CCCCC[C@](C)(O)/C=C/[C@@H]1[C@@H](C/C=C\CCCC(=O)O)[C@@H](O)C[C@H]1O [Carboprost, reference compound] | 0.001 mg/cm^2/h | – | –
5 | O=C(O)CCC/C=C\CC1C(O)CC(O)C1/C=C/C(O)COc1cccc(Cl)c1 (centres unmarked) [Cloprostenol, reference compound] | 0.001 mg/cm^2/h | – | –
6 | CCCCC(C)(C)[C@H](O)/C=C/[C@H]1[C@H](O)CC(=O)[C@@H]1CCCC/C=C/C(=O)OC [Gemeprost, reference compound] | 0.001 mg/cm^2/h | – | –
7 | CC(C)OC(=O)CCC/C=C\C[C@@H]1[C@@H](CC[C@@H](O)CCc2ccccc2)[C@H](O)C[C@@H]1O [Latanoprost, 13,14-dihydro-17-phenyl-18,19,20-trinor PGF2α isopropyl ester, reference compound] | 0.001 mg/cm^2/h | – | Degree of irritative effect (cat eye; dose 0.001% topical): 2.5
8 | CC(=O)O.CCCCCC(O)C=C[C@H]1C(O)CC2OC(=CCCCC(=O)OCCN(CC)CC)C[C@@H]21 (some centres unmarked) [N,N-diethylaminoethyl 6,9-epoxy-11,15-dihydroxyprosta-5,13-dien-1-oate•AcOH] | – | 1.11 mg/cm^2/h | –
9 | CC(=O)O.CCN(CC)CCOC(=O)CCC=C=CCC1C(O)CC(O)C1C=CC(O)COc1ccccc1 (centres unmarked) [N,N-diethylaminoethyl 7-[3,5-dihydroxy-2-(3-hydroxy-4-phenoxy-1-butenyl)cyclopentyl]-4,5-heptadien-1-oate•AcOH] | – | 0.81 mg/cm^2/h | –
10 | CC(=O)O.CCN(CC)CCOC(=O)CCCC=CCC1C(=O)CC(O)C1C=CC(O)COc1ccccc1 (centres unmarked) [N,N-diethylaminoethyl 7-[3-hydroxy-2-(3-hydroxy-4-phenoxy-1-butenyl)-5-oxocyclopentyl]-5-heptenoate•AcOH] | – | 1.01 mg/cm^2/h | –
11 | CC(=O)O.CCN(CC)CCOC(=O)CCCC=CCC1C(O)CC(O)C1C=CC(O)COc1cccc(Cl)c1 (centres unmarked) [N,N-diethylaminoethyl 7-{2-[4-(3-chlorophenoxy)-3-hydroxy-1-butenyl]-3,5-dihydroxycyclopentyl}-5-heptenoate•AcOH] | – | 0.92 mg/cm^2/h | –
12 | CC(=O)O.CCN(CC)CCOC(=O)CCCC=CCC1C(O)CC(O)C1C=CC(O)COc1cccc(C(F)(F)F)c1 (centres unmarked) [N,N-diethylaminoethyl 7-{3,5-dihydroxy-2-[3-hydroxy-4-(3-trifluoromethylphenoxy)-1-butenyl]cyclopentyl}-5-heptenoate•AcOH] | – | 0.86 mg/cm^2/h | –
13 | CC(=O)O.CCCCCC(C)(O)C=C[C@H]1C(O)CC(O)[C@@H]1CC=C=CCCC(=O)OCCN(CC)CC (some centres unmarked) [N,N-diethylaminoethyl 9,11,15-trihydroxy-15-methylprosta-4,5,13-trien-1-oate•AcOH] | – | 0.90 mg/cm^2/h | –
14 | CC(=O)O.CCCCCC(O)C=C[C@H]1C(O)CC(O)[C@@H]1CCCCCCC(=O)OCCN(CC)CC (some centres unmarked) [N,N-diethylaminoethyl 9,11,15-trihydroxyprost-13-en-1-oate•AcOH] | – | 0.85 mg/cm^2/h | –
15 | CCCCC[C@H](O)/C=C/[C@H]1[C@H](O)CC(=O)[C@@H]1CCCCCCC(=O)O [PGE1, reference compound] | – | – | Degree of irritative effect (conjunctival hyperemia) (rabbit eye; dose 0.001% topical): 4; Degree of irritative effect (cat eye; dose 0.001% topical): 4
16 | CCCCC[C@H](O)/C=C/[C@@H]1[C@@H](C/C=C\CCCC(=O)O)[C@@H](O)C[C@H]1O [PGF2α, reference compound] | – | – | Degree of irritative effect (conjunctival hyperemia) (rabbit eye; dose 0.001% topical): 4; Degree of irritative effect (cat eye; dose 0.001% topical): 3.5

Second part, led by results:

Row | In vitro penetration rate (apparent flux), parent compounds [1] | In vitro penetration rate (apparent flux), prodrug compounds [1] | SMILES | further results
17 | – | 1.05 mg/cm^2/h | CC(=O)O.CCCCCCCC(=O)C=C[C@H]1C(O)CC(O)[C@@H]1CC=CCCCC(=O)OCCN(CC)CC (some centres unmarked) [N,N-diethylaminoethyl 9,11-dihydroxy-15-keto-20-ethylprost-5,13-dien-1-oate.AcOH] | Intraocular pressure, 24 hours after administration [2, 3]: 16.5 ± 0.6; Intraocular pressure, 36 hours after administration [2, 3]: 16.7 ± 0.4; Intraocular pressure, 48 hours after administration [2, 3]: 16.8 ± 0.6; Intraocular pressure, 60 hours after administration [2, 3]: 17.1 ± 0.5; Intraocular pressure, 72 hours after administration [2, 3]: 16.8 ± 0.5; Intraocular pressure, baseline ([2]; prior to treatment, group dosed 0.01%): 22.0 ± 0.6; Degree of irritative effect (conjunctival hyperemia) (rabbit eye; dose 0.01% topical): 1; Degree of irritative effect (cat eye; dose 0.01% topical): 1
18 | – | 1.10 mg/cm^2/h | CC(=O)O.CCCCCC(O)C=C[C@H]1C(O)CC(=O)[C@@H]1CC=CCCCC(=O)OCCN(CC)CC (some centres unmarked) [N,N-diethylaminoethyl 11,15-dihydroxy-9-oxoprosta-5,13-dien-1-oate.AcOH] | –
19 | – | 0.88 mg/cm^2/h | CC(=O)O.CCCCC(C)(C)C(O)C=C[C@H]1C(O)CC(=O)[C@@H]1CCCCC=CC(=O)OCCN(CC)CC (some centres unmarked) [N,N-diethylaminoethyl 11,15-dihydroxy-16,16-dimethyl-9-oxoprosta-2,13-dien-1-oate•AcOH] | –
20 | – | 1.09 mg/cm^2/h | CC(=O)O.CCCCC(C)(O)CC=C[C@H]1C(O)CC(=O)[C@@H]1CCCCCCC(=O)OCCN(CC)CC (some centres unmarked) [N,N-diethylaminoethyl 11,16-dihydroxy-9-oxo-16-methylprost-13-en-1-oate•AcOH] | –
21 | 0.001 mg/cm^2/h | – | CCCCC[C@H](O)/C=C/[C@@H]1[C@@H](CCCCCCC(=O)O)[C@@H](O)C[C@H]1O [PGE1α, reference compound] | –
22 | 0.001 mg/cm^2/h | – | CCCCC[C@H](O)/C=C/[C@H]1[C@H](O)CC(=O)[C@@H]1C/C=C\CCCC(=O)O [PGE2, reference compound] | Degree of irritative effect (conjunctival hyperemia) (rabbit eye; dose 0.001% topical): 4; Degree of irritative effect (cat eye; dose 0.001% topical): 3.5
23 | 0.001 mg/cm^2/h | – | CCCCC[C@H](O)/C=C/[C@@H]1[C@H]2C/C(=C/CCCC(=O)O)O[C@H]2C[C@H]1O [PGI2, prostacyclin, reference compound] | –
24 | 0.001 mg/cm^2/h | – | CCCCCC(C)(O)/C=C/[C@@H]1[C@@H](CC=C=CCCC(=O)OC)[C@@H](O)C[C@H]1O (some centres unmarked) [Prostalene, reference compound] | –
25 | 0.001 mg/cm^2/h | – | CS(=O)(=O)NC(=O)CCC/C=C\C[C@H]1C(=O)C[C@@H](O)[C@@H]1/C=C/[C@@H](O)COc1ccccc1 [Sulprostone, reference compound] | –
26 | 0.001 mg/cm^2/h | – | CCCCCCCC(=O)CC[C@@H]1[C@@H](C/C=C\CCCC(=O)O)[C@@H](O)C[C@H]1O [Unoprostone, 13,14-dihydro-15-keto-20-ethyl Prostaglandin F2α, reference compound] | Degree of irritative effect (conjunctival hyperemia) (rabbit eye; dose 0.01% topical): 2.5; Degree of irritative effect (cat eye; dose 0.01% topical): 2.5
27 | 0.001 mg/cm^2/h | – | COC(=O)CCC=C=CCC1C(O)CC(O)C1/C=C/C(O)COc1ccccc1 (centres unmarked) [fenprostalene, reference compound] | –
